Measurements taken from patent US11766447B2, “3′3′-cyclic dinucleotide analogue comprising a cyclopentanyl modified nucleotide as sting modulator” (INSTITUTE OF ORGANIC CHEMISTRY AND BIOCHEMISTRY ASCR, V.V.I., priority 2019, dated 2023).
Read-outs that look alike come from different tables or passages of the source. Blank lines part the entries; values can stand above or below the compound they belong to.

What was measured:
[1] = biological target: T1, WT STING (Homo sapiens, UniProt Q86WV6, H232R); test: 293T WT STING standard reporter assay; type: cell-based; parameters: host or cells: 293T (ATCC CRL-3216), stably transfected, with 4xISRE firefly luciferase reporter; conditions: 293T wtSTING-FL cells, ISRE firefly luciferase; no digitonin; 7 hours with compounds; 8-point curve
Source text: Two complementary oligonucleotides of the sequence […] […] […] […] […] The oligonucleotides were mixed in equal molar amounts, hybridized, and cleaved by restriction endonucleases HindIII (cat. #. R0104S, NEB, Ipswich, USA) and BglII (cat. #R0144S, NEB, Ipswich, USA). Ultimately, they were ligated into plasmid pGL4.27 (cat. #E6651, Promega, Madison, USA) linearized with the same enzymes. As result the sequence with four ISRE sites was placed upstream of the minimum promoter of firefly luciferase reporter gene.
After 5 minutes incubation at room temperature (RT), 250 μL of the mixture was added dropwise to the cells in one well. Cells were incubated 36 hours at 37° C. with 5% CO2, and then detached with 0.05% Trypsin and 0.22 g/L EDTA (both cat. #L0941, Biowest, Riverside, USA).
Transfected cells were seeded onto poly-D-lysine coated six well plates at density 50,000 cells per 1 cm^2 in DMEM medium with high glucose containing 10% heat inactivated FBS, 30 μg/mL blasticidin (cat. #ant-b1-05, InvivoGen, San Diego, USA), 0.06 mg/ml Penicillin G and 0.1 mg/ml Streptomycin Sulfate (both cat. #. L0018, Biowest, Riverside, USA). The medium was replenished every 3-4 days until visible colonies of cells resistant to blasticidin were formed.
Blasticidin resistant cells stably expressing WT STING were further transfected with […] plasmid following the same procedure as described above. […] Homogeneous culture of stably double transfected cells was prepared by limiting dilution of cells in 96 well plates and wells with cells were selected that originated from a single cell.
The medium was removed next day and three-fold serial dilutions of compounds in 100 μl medium were added to the cells. The plates with cells were incubated for 7 hours at 37° C. with 5% CO2. After 50 μl of the medium was removed, 30 μl of ONE-Glo™ Luciferase Assay System reagent (cat. #E6120, Promega, Madison, USA) was added to each well and luminescence was read on Synergy H1 (Biotek, Winooski, USA).
Target sequence in this assay (Q86WV6 whole entry H232R): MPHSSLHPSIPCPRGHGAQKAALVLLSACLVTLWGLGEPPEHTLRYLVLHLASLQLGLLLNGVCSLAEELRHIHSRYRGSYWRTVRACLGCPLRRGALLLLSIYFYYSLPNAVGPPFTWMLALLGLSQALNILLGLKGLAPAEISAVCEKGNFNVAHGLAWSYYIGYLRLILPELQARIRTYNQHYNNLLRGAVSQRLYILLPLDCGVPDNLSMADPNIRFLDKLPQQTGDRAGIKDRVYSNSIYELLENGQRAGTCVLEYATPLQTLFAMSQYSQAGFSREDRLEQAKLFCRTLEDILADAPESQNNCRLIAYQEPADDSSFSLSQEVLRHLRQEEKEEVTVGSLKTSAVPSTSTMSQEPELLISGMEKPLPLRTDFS

[2] = biological target: T2, AQ STING (G230A-R293Q) (Homo sapiens, UniProt Q86WV6, G230A/H232R/R293Q); test: Differential scanning fluorimetry (DSF) with AQ STING; type: binding; conditions: thermal shift vs apoprotein; 150 μM CDN; truncated human AQ STING 0.1 mg/ml
T2 construct: 8xHis (N, cleaved yes); SUMO (N, cleaved yes); made in house; host or cells: E. coli Rosetta-gami B (DE3)
How it was run: (§1)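 […] STING proteins, alone or with CDNs, in triplicate, thermally denatured on a real-time PCR cycler. Denaturing temperatures taken from first-derivative curves; shift = mean Tm of STING–CDN complex minus mean Tm of apoprotein.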

[3] = biological target: T1, WT STING; test: Digitonin assay using 293T wtSTING-FL reporter cells; type: cell-based; parameters: host or cells: 293T (ATCC CRL-3216), stably transfected, with 4xISRE firefly luciferase reporter; conditions: 293T wtSTING-FL cells, ISRE firefly luciferase; compounds in Digitonin buffer 30 minutes, then 5 hours; 8-point curve
Target sequence in this assay (Q86WV6 whole entry H232R): as above

[4] = biological target: T1, WT STING; test: Differential scanning fluorimetry (DSF) with WT STING; type: binding; parameters: 8xHis (N, cleaved yes); SUMO (N, cleaved yes); made in house; host or cells: E. coli Rosetta-gami B (DE3); conditions: thermal shift vs apoprotein; 150 μM CDN; truncated human WT STING 0.1 mg/ml
How it was run: as §1
Target sequence in this assay (Q86WV6 140-343 H232R): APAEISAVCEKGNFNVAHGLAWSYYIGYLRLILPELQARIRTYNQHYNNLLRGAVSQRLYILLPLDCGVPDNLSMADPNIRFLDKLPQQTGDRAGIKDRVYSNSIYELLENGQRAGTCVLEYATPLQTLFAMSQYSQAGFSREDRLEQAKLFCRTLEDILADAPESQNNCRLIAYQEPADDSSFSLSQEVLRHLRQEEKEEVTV

[5] = tested on: peripheral blood mononuclear cells (PBMC); test: Peripheral blood mononuclear cell (PBMC) assay; type: cell-based; conditions: 1 h with compounds, washed, 15 hour incubation, average of one to four donors
Protocol: Selected compounds were tested in an in vitro peripheral blood mononuclear cell (PBMC) assay. […] Serially diluted tested compounds were added to wells in 50 μl of cultivation medium and cell were incubated with compounds for 1 h at 37° C. with 5% CO2. Plates with cells were then spun 500 g for 5 minutes and medium was removed. Cells were washed twice with the cell culture medium by the use of centrifugation and gently resuspended in 100 μl medium without compounds. After 15 hour incubation at 37° C. with 5% CO2, the cell culture medium was collected and the levels of interferon-alpha (INF-α), interferon-gamma (INF-γ) and tumor necrosis factor-alpha (TNF-α) were determined with ProcartaPlex Assays (ThermoFisher, Waltham, USA) and MAGPIX System (Merck KGaA, Darmstadt, Germany). […] Values reported are an average of runs from one to four donors.

[6] = interferon-alpha level, read-out: PBMC EC50 (μM) IFN-α
[7] = interferon-gamma level, read-out: PBMC EC50 (μM) IFN-γ
[8] = tumor necrosis factor-alpha level, read-out: PBMC EC50 (μM) TNF-α
[9] = PBMC, interferon-gamma level, read-out: PBMC EC50 (μM) IFN-γ
[10] = PBMC, tumor necrosis factor-alpha level, read-out: PBMC EC50 (μM) TNF-α
[11] = PBMC, interferon-alpha level, read-out: PBMC EC50 (μM) IFN-α

T2 sequence (Q86WV6 140-343 G230A/H232R/R293Q): as the sequence (Q86WV6 140-343 H232R) above, with G91A, R154Q counted along it

EC50 [1]: 1800 nM
ΔTm at 150 µM [2]: 11.2 °C
EC50 [3]: 110 nM
ΔTm at 150 µM [4]: 6.7 °C
Compound: Nc1ncnc2c1ncn2[C@@H]1C[C@@H]2COP(=O)(S)OC3C(F)[C@H](n4cnc5c(N)ncnc54)O[C@@H]3COP(=O)(S)OC2C1F (single isomer, unassigned) [Compound 102a]

EC50 [1]: 700 nM
DSF ΔTm (° C.) AQ STING [2]: 16.9 °C
EC50 [3]: 5 nM
DSF ΔTm (° C.) WT STING [4]: 11.9 °C
Compound: Nc1ncnc2c1ncn2[C@@H]1C[C@@H]2COP(=O)(S)OC3C(F)[C@H](n4cnc5c(N)ncnc54)O[C@@H]3COP(=O)(S)OC2C1F (single isomer, unassigned) [Compound 102b]

EC50 [1]: 400 nM
EC50 [3]: 10 nM
Compound: Nc1ncnc2c1ncn2[C@@H]1C[C@@H]2COP(=O)(S)OC3C(F)[C@H](n4cnc5c(N)ncnc54)O[C@@H]3COP(=O)(S)OC2C1F (single isomer, unassigned) [Compound 102d]

EC50 [1]: 1000 nM
ΔTm at 150 µM [2]: 20.7 °C
EC50 [3]: 10 nM
ΔTm at 150 µM [4]: 14.7 °C
Compound: Nc1ncnc2c1ncn2[C@@H]1C[C@@H]2COP(=O)(O)O[C@H]3[C@@H](F)[C@H](n4cnc5c(N)ncnc54)O[C@@H]3COP(=O)(S)O[C@H]2[C@H]1F (single isomer, unassigned) [Compound 130a]

EC50 [1]: 1200 nM
DSF ΔTm (° C.) AQ STING [2]: 20.3 °C
EC50 [3]: 10 nM
DSF ΔTm (° C.) WT STING [4]: 13.6 °C
Compound: Nc1ncnc2c1ncn2[C@@H]1C[C@@H]2COP(=O)(O)O[C@H]3[C@@H](F)[C@H](n4cnc5c(N)ncnc54)O[C@@H]3COP(=O)(S)O[C@H]2[C@H]1F (single isomer, unassigned) [Compound 130b]

EC50 [1]: 500 nM
EC50 [3]: 20 nM
Compound: Nc1ncnc2c1ncn2[C@@H]1C[C@@H]2COP(=O)(S)OC3C[C@H](n4cnc5c(N)ncnc54)O[C@@H]3COP(=O)(S)OC2C1F (single isomer, unassigned) [Compound 142b]

EC50 [1]: 0.3 nM
Compound: CCCCCCCC(=O)OCOP1(=O)OC[C@H]2O[C@@H](n3cnc4c(N)ncnc43)[C@H](F)[C@@H]2OP(=O)(OCOC(=O)CCCCCCC)OC[C@H]2C[C@@H](n3cnc4c(N)ncnc43)[C@H](F)[C@@H]2O1 (single isomer, unassigned) [Compound 146b]
EC50 [5, 6]: 0.02 µM
EC50 [5, 7]: 0.01 µM
EC50 [5, 8]: 0.01 µM

EC50 [1]: 1 nM
Compound: CCCCCCCC(=O)OCOP1(=O)OC[C@H]2O[C@@H](n3cnc4c(N)ncnc43)[C@H](F)[C@@H]2OP(=O)(OCOC(=O)CCCCCCC)OC[C@H]2C[C@@H](n3cnc4c(N)ncnc43)[C@H](F)[C@@H]2O1 (single isomer, unassigned) [Compound 146c]
EC50 [5, 6]: 0.02 µM
EC50 [5, 7]: 0.02 µM
EC50 [5, 8]: 0.01 µM

EC50 [1]: 10200 nM
DSF ΔTm (° C.) AQ STING [2]: 19.4 °C
EC50 [3]: 30 nM
DSF ΔTm (° C.) WT STING [4]: 11.5 °C
Compound: Nc1nc2c(ncn2[C@@H]2O[C@@H]3COP(=O)(O)O[C@@H]4[C@H](O)[C@@H](COP(=O)(O)O[C@@H]2[C@@H]3O)O[C@H]4n2cnc3c(N)ncnc32)c(=O)[nH]1 [2′2′-cGAMP, reference compound]

EC50 [1]: 3 nM
Compound: CC(C)(C)C(=O)OCOP1(=O)OC[C@H]2O[C@@H](n3cnc4c(N)ncnc43)CC2OP(=O)(OCOC(=O)C(C)(C)C)OC[C@H]2C[C@@H](n3cnc4c(N)ncnc43)C(F)C2O1 (stereo partly drawn) [Compound 139a, (((2R,3aS,7aR,9R,10S,10aR,14aR)-2,9-bis(6-amino-9H-purin-9-yl)-10-fluoro-5,12-dioxidodecahydro-2H-cyclopenta[d]furo[3,2-j][1,3,7,9]tetraoxa[2,8]di-phosphacyclododecine-5,12-diyl)bis(oxy))bis(methylene) bis(2,2-dimethylpropanoate)]
EC50 [5, 9]: 0.1 µM
EC50 [5, 10]: 0.1 µM

EC50 [1]: 1 nM
Compound: CC(C)(C)C(=O)OCOP1(=O)OC[C@H]2O[C@@H](n3cnc4c(N)ncnc43)CC2OP(=O)(OCOC(=O)C(C)(C)C)OC[C@H]2C[C@@H](n3cnc4c(N)ncnc43)C(F)C2O1 (stereo partly drawn) [Compound 139b, (((2R,3aS,7aR,9R,10S,10aR,14aR)-2,9-bis(6-amino-9H-purin-9-yl)-10-fluoro-5,12-dioxidodecahydro-2H-cyclopenta[d]furo[3,2-j][1,3,7,9]tetraoxa[2,8]di-phosphacyclododecine-5,12-diyl)bis(oxy))bis(methylene) bis(2,2-dimethylpropanoate)]
EC50 [5, 6]: 0.3 µM
EC50 [5, 7]: 0.1 µM
EC50 [5, 8]: 0.1 µM

EC50 [1]: 5 nM
Compound: CC(C)OC(=O)OCOP1(=O)OC[C@H]2O[C@@H](n3cnc4c(N)ncnc43)C(F)C2OP(=O)(OCOC(=O)OC(C)C)OC[C@H]2C[C@@H](n3cnc4c(N)ncnc43)C(F)C2O1 (stereo partly drawn) [Compound 143b, {[(1R,6R,8R,9R,10R,15R,17R,18S)-8,17-bis(6-amino-9H-purin-9-yl)-9,18-difluoro-3,12-dioxo-3-({[(propan-2-yloxy)carbonyl]oxy}methoxy)-2,4,7,11,13-pentaoxa-3λ^5,12λ^5-diphosphatricyclo[13.3.0.0^6,10]octadecan-12-yl]oxy}methyl propan-2-yl carbonate]
EC50 [5, 11]: 0.3 µM
EC50 [5, 9]: 0.15 µM
EC50 [5, 10]: 0.3 µM

EC50 [1]: 1 nM
Compound: CCC(C)(C)C(=O)OCOP1(=O)OC[C@H]2O[C@@H](n3cnc4c(N)ncnc43)C(F)C2OP(=O)(OCOC(=O)C(C)(C)CC)OC[C@H]2C[C@@H](n3cnc4c(N)ncnc43)C(F)C2O1 (stereo partly drawn) [Compound 144b, {[(1R,6R,8R,9R,10R,15R,17R,18S)-8,17-bis(6-amino-9H-purin-9-yl)-3-{[(2,2-dimethylbutanoy)oxy]methoxy}-9,18-difluoro-3,12-dioxo-2,4,7,11,13-pentaoxa-3λ^5,12λ^5-diphosphatricyclo[13.3.0.0^6,10]octadecan-12-yl]oxy}methyl 2,2-dimethylbutanoate]
EC50 [5, 11]: 0.04 µM
EC50 [5, 9]: 0.05 µM
EC50 [5, 10]: 0.02 µM

EC50 [1]: 6 nM
Compound: CC1(C(=O)OCOP2(=O)OC[C@H]3O[C@@H](n4cnc5c(N)ncnc54)C(F)C3OP(=O)(OCOC(=O)C3(C)CCCCC3)OC[C@H]3C[C@@H](n4cnc5c(N)ncnc54)C(F)C3O2)CCCCC1 (stereo partly drawn) [Compound 145c]
EC50 [5, 11]: 0.04 µM
EC50 [5, 9]: 0.01 µM
EC50 [5, 10]: 0.02 µM
